# Measurements published in patent US10610520B2, “Heterocyclic compound” (Takeda Pharmaceutical Company Limited, priority 2016, dated 2020).
# Molecular target: T1, His-hMAGL (recombinant polyhistidine tagged human MAGL protein) (Homo sapiens, UniProt Q99685)
# T1 construct: made in house; host or cells: E. coli BL21(DE3)
# T1 sequence (Q99685 1-303): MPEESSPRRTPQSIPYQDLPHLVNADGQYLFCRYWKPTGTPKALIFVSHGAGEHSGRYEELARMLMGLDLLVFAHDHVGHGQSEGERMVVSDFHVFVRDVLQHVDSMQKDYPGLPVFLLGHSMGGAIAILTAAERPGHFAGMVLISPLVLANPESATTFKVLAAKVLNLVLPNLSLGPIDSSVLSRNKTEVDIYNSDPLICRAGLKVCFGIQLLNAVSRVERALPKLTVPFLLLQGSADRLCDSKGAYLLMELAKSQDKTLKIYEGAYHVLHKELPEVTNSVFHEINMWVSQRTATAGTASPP
# Test: Measurement of MAGL inhibitory activity (arachidonic acid production from 2-arachidonylglycerol, RapidFire-mass spectrometry)
# Type: biochemical
# Conditions: MAGL inhibitory rate, test compound 10 μM, 60 min preincubation, 2-arachidonylglycerol substrate
# Description: The His-hMAGL obtained above was diluted with enzyme reaction buffer (10 mM Tris-HCl, pH 7.5, 1 mM EDTA, 0.025 (w/v) % Triton X-100, 0.01% Bovine serum albumin) to a concentration of 7.5 ng/mL. […] Thereafter, to each well was added 5 μL of 150 μM 2-arachidonylglycerol (Tocris Bioscience), and the mixture was incubated at room temperature for 10 min. Then, 10 μL of 2% formic acid (Wako Pure Chemical Industries, Ltd.) was added to stop the reaction. Furthermore, acetonitrile (50 μL) containing 3 μM arachidonic acid-d8 (Cayman Chemical Company) was added and the mixture was stirred.
# The amount of arachidonic acid in the obtained enzyme reaction mixture was calculated by measuring by RapidFire-mass spectrometry and correcting by the amount of arachidonic acid-d8. High Throughput online solid phase extraction was performed using RapidFire 300™ system (Agilent Technologies, Inc.). Samples were loaded on SPE C4 cartridge (Agilent Technologies, Inc.) and desalted with 0.2 (v/v) % acetic acid (Wako Pure Chemical Industries, Ltd.) in ultrapure water/acetonitrile (70/30, v/v) at a flow rate of 1.5 mL/min, eluted at a flow rate of 0.5 mL/min with 0.2 (v/v) % acetic acid dissolved in acetonitrile/ultrapure water (90/10, v/v), and injected into the mass spectrometry part. The injection needle was washed with ultrapure water (500 millisecond) and acetonitrile (500 millisecond) to minimize carry-over. […] The RapidFire300 system was controlled by RapidFire UI software version 3.6 (Agilent Technologies, Inc.).
# The mass spectrometry of the resultant product was performed using API4000™ triple quadrupole mass spectrometer (AB SCIEX) equipped with an electrospray ion sauce (TurboIon Spray™) in a negative selected reaction monitoring (SRM) mode. The conditions of SRM are shown below. The parameters of the instrument were optimized as follows: capillary temperature 600° C., ion spray voltage −4.5 kV, collision gas 8, curtain gas 15 psi, ion source gas 1 60 psi, ion source gas 2 60 psi. The mass spectrometer was controlled by Analyst™ software version 1.5.1 (AB SCIEX). The peak area integration was analyzed using RapidFire integrator software version 3.6 (Agilent Technologies, Inc.).
# MAGL inhibitory rate (%) was calculated according to the following calculation formula. (1-(arachidonic acid production amount of test compound addition group−arachidonic acid production amount of enzyme-free group)÷(arachidonic acid production amount of test compound-free group−arachidonic acid production amount of enzyme-free group))×100
row,SMILES,inhibition at 10 µM [%]
1,"O=C1CCC2(CN(C(=O)c3ccc(-c4coc5ccccc45)cc3)C2)N1 [Example 66, 2-(4-(1-benzofuran-3-yl)benzoyl)-2,5-diazaspiro[3.4]octan-6-one]",98
2,"O=C1CCC2(CN(C(=O)c3ccc(-c4csc5ccccc45)cc3)C2)N1 [Example 67, 2-(4-(1-benzothiophen-3-yl)benzoyl)-2,5-diazaspiro[3.4]octan-6-one]",100
3,"O=C1CCC2(CN(C(=O)c3ccc(-c4cc(F)c(F)c(F)c4)cc3)C2)N1 [Example 68, 2-((3′,4′,5′-trifluorobiphenyl-4-yl)carbonyl)-2,5-diazaspiro[3.4]octan-6-one]",93
4,"O=C1CCC2(CN(C(=O)c3ccc(-c4ccc(F)c(F)c4F)cc3)C2)N1 [Example 69, 2-((2′,3′,4′-trifluorobiphenyl-4-yl)carbonyl)-2,5-diazaspiro[3.4]octan-6-one]",97
5,"O=C1CCC2(CN(C(=O)c3ccc(-c4cc(F)c(F)cc4F)cc3)C2)N1 [Example 70, 2-((2′,4′,5′-trifluorobiphenyl-4-yl)carbonyl)-2,5-diazaspiro[3.4]octan-6-one]",97
6,"COc1c(F)cc(-c2ccc(C(=O)N3CC4(CCC(=O)N4)C3)cc2)cc1F [Example 71, 2-((3′,5′-difluoro-4′-methoxybiphenyl-4-yl)carbonyl)-2,5-diazaspiro[3.4]octan-6-one]",94
7,"O=C1CCC2(CN(C(=O)c3ccc(-c4ccc5sncc5c4)cc3)C2)N1 [Example 72, 2-(4-(1,2-benzothiazol-5-yl)benzoyl)-2,5-diazaspiro[3.4]octan-6-one]",97
8,"O=C1CCC2(CN(C(=O)c3ccc(-c4ccc5cnsc5c4)cc3)C2)N1 [Example 73, 2-(4-(1,2-benzothiazol-6-yl)benzoyl)-2,5-diazaspiro[3.4]octan-6-one]",98
9,"O=C1CCC2(CN(C(=O)c3ccc(-c4ccc5c(c4)OCC5)cc3)C2)N1 [Example 74, 2-(4-(2,3-dihydro-1-benzofuran-6-yl)benzoyl)-2,5-diazaspiro[3.4]octan-6-one]",95
10,"O=C1CCC2(CN(C(=O)c3ccc(-c4cccc5c4CCO5)cc3)C2)N1 [Example 75, 2-(4-(2,3-dihydro-1-benzofuran-4-yl)benzoyl)-2,5-diazaspiro[3.4]octan-6-one]",90
11,"O=C1CCC2(CN(C(=O)c3ccc(-c4c(F)cccc4F)cc3)C2)N1 [Example 76, 2-((2′,6′-difluorobiphenyl-4-yl)carbonyl)-2,5-diazaspiro[3.4]octan-6-one]",85
12,"O=C1CCC2(CN(C(=O)c3ccc(-c4c(F)cc(F)cc4F)cc3)C2)N1 [Example 77, 2-((2′,4′,6′-trifluorobiphenyl-4-yl)carbonyl)-2,5-diazaspiro[3.4]octan-6-one]",88
13,"COc1ccc(F)c(-c2ccc(C(=O)N3CC4(CCC(=O)N4)C3)cc2)c1F [Example 78, 2-((2′,6′-difluoro-3′-methoxybiphenyl-4-yl)carbonyl)-2,5-diazaspiro[3.4]octan-6-one]",85
14,"O=C1CCC2(CN(C(=O)c3ccc(-c4cc(F)ccc4Cl)cc3)C2)N1 [Example 79, 2-((2′-chloro-5′-fluorobiphenyl-4-yl)carbonyl)-2,5-diazaspiro[3.4]octan-6-one]",92
15,"O=C1CCC2(CN(C(=O)c3ccc(-c4cc(Cl)ccc4Cl)cc3)C2)N1 [Example 80, 2-((2′,5′-dichlorobiphenyl-4-yl)carbonyl)-2,5-diazaspiro[3.4]octan-6-one]",98
16,"Cc1ccc(Cl)c(-c2ccc(C(=O)N3CC4(CCC(=O)N4)C3)cc2)c1 [Example 81, 2-((2′-chloro-5′-methylbiphenyl-4-yl)carbonyl)-2,5-diazaspiro[3.4]octan-6-one]",94

row,SMILES,inhibition at 10 µM [%]
1,"COc1ccc(Cl)c(-c2ccc(C(=O)N3CC4(CCC(=O)N4)C3)cc2)c1 [Example 82, 2-((2′-chloro-5′-methoxybiphenyl-4-yl)carbonyl)-2,5-diazaspiro[3.4]octan-6-one]",93
2,"Cc1ccc(-c2ccc(C(=O)N3CC4(CCC(=O)N4)C3)cc2)c(Cl)c1 [Example 83, 2-((2′-chloro-4′-methylbiphenyl-4-yl)carbonyl)-2,5-diazaspiro[3.4]octan-6-one]",96
3,"O=C1CCC2(CN(C(=O)c3ccc(-c4ccc(Cl)cc4Cl)cc3)C2)N1 [Example 84, 2-((2′,4′-dichlorobiphenyl-4-yl)carbonyl)-2,5-diazaspiro[3.4]octan-6-one]",101
4,"COc1ccc(-c2ccc(C(=O)N3CC4(CCC(=O)N4)C3)cc2)c(Cl)c1 [Example 85, 2-((2′-chloro-4′-methoxybiphenyl-4-yl)carbonyl)-2,5-diazaspiro[3.4]octan-6-one]",94
5,"O=C1CCC2(CN(C(=O)c3ccc(-c4cccc(Cl)c4)cc3)C2)N1 [Example 86, 2-((3′-chlorobiphenyl-4-yl)carbonyl)-2,5-diazaspiro[3.4]octan-6-one]",97
6,"O=C1CCC2(CN(C(=O)c3ccc(-c4ccc(Cl)cc4)cc3)C2)N1 [Example 87, 2-((4′-chlorobiphenyl-4-yl)carbonyl)-2,5-diazaspiro[3.4]octan-6-one]",98
7,"Cc1ccc(-c2ccc(C(=O)N3CC4(CCC(=O)N4)C3)cc2)c(C)c1 [Example 88, 2-((2′,4′-dimethylbiphenyl-4-yl)carbonyl)-2,5-diazaspiro[3.4]octan-6-one]",98
8,"Cc1cccc(-c2ccc(C(=O)N3CC4(CCC(=O)N4)C3)cc2)c1C [Example 89, 2-((2′,3′-dimethylbiphenyl-4-yl)carbonyl)-2,5-diazaspiro[3.4]octan-6-one]",96
9,"Cc1ccc(C)c(-c2ccc(C(=O)N3CC4(CCC(=O)N4)C3)cc2)c1 [Example 90, 2-((2′,5′-dimethylbiphenyl-4-yl)carbonyl)-2,5-diazaspiro[3.4]octan-6-one]",92
10,"Cc1c(F)ccc(F)c1-c1ccc(C(=O)N2CC3(CCC(=O)N3)C2)cc1 [Example 91, 2-((3′,6′-difluoro-2′-methylbiphenyl-4-yl)carbonyl)-2,5-diazaspiro[3.4]octan-6-one]",90
11,"Cc1cc(C(F)(F)F)ccc1-c1ccc(C(=O)N2CC3(CCC(=O)N3)C2)cc1 [Example 92, 2-((2′-methyl-4′-(trifluoromethyl)biphenyl-4-yl)carbonyl)-2,5-diazaspiro[3.4]octan-6-one]",96
12,"Cc1cc(C)c(-c2ccc(C(=O)N3CC4(CCC(=O)N4)C3)cc2)c(C)c1 [Example 93, 2-((2′,4′,6′-trimethylbiphenyl-4-yl)carbonyl)-2,5-diazaspiro[3.4]octan-6-one]",82
13,"O=C1CCC2(CN(C(=O)c3ccc(-c4cccc5c4OCC5)cc3)C2)N1 [Example 94, 2-(4-(2,3-dihydro-1-benzofuran-7-yl)benzoyl)-2,5-diazaspiro[3.4]octan-6-one]",93
14,"O=C1CCC2(CN(C(=O)c3ccc(-c4ccc5c(c4)CCO5)cc3)C2)N1 [Example 95, 2-(4-(2,3-dihydro-1-benzofuran-5-yl)benzoyl)-2,5-diazaspiro[3.4]octan-6-one]",94
15,"O=C1CCC2(CN(C(=O)N3CCC(Cc4ccccc4F)CC3)C2)N1 [Example 96, 2-((4-(2-fluorobenzyl)piperidin-1-yl)carbonyl)-2,5-diazaspiro[3.4]octan-6-one]",101
